In publication PMC6680932, “Structure–Antioxidant–Antiproliferative Activity Relationships of Natural C7 and C7–C8 Hydroxylated Flavones and Flavanones” (Antioxidants, 2019):

How the values were obtained:
[1] = system: MV-4-11 (biphenotypic B myelomonocytic leukemia); experiment: Antiproliferative activity in vitro, MTT assay; assay type: cell-based, human; settings: Homo sapiens, MV4-11, 72 h exposure, read-out: IC50 ± SD MV-4-11
[2] = system: MCF 10A (breast cells); experiment: Antiproliferative activity in vitro, SRB assay; assay type: cell-based, human; settings: Homo sapiens, MCF-10A; 72 h exposure, SRB; normal cell line; read-out: IC50 ± SD MCF 10A
[3] = Stability of flavonoids before administration to the cell cultures (diluted in RPMI 1640/Opti-MEM medium), HPLC; assay type: physicochemical; settings: 100 µg/mL, medium with 2 mM L-glutamine, 5% fetal bovine serum, penicillin, streptomycin; 3 h incubation
Procedure: Tested compounds were dissolved in DMSO and then diluted in a 1:1 (v/v) mixture of RPMI 1640 (HIIET, PAS, Wroclaw, Poland) and Opti-MEM (Gibco, Scotland, UK) medium supplemented with 2 mM L-glutamine (Sigma-Aldrich, Poznan, Poland), 5% fetal bovine serum (GE Healthcare), 100 units/mL penicillin (Polfa Tarchomin S.A., Warsaw, Poland), and 100 µg/mL streptomycin (Sigma-Aldrich, Poznan, Poland). The antiproliferative effects of the flavonoids were examined after 72 h of exposure of the cultured cells to varying concentrations of the tested agents (from 0.1 to 100 μg/mL) using the MTT (for MV-4-11 cells) or SRB assay described below. Cisplatin (chemotherapy drug used to treat a number of cancers) was used as a positive control. The results are presented as an inhibitory concentration 50 (IC50), which is the concentration of the tested agent that inhibits proliferation of the cell population by 50%. IC50 values for each experiment were calculated separately.
Flavonoids were dissolved (as described in Section 2.4) to the concentration of 100 µg/mL. The solutions corresponding to the solutions before the administration to the cell cultures were incubated in 96-well plates for 3 h and transferred to microtubes containing 400 µL of cold methanol (−20 °C) and kept at −20 °C for 1 h. After centrifugation at 12,000× g for 10 min, samples were analyzed by HPLC. Control experiments were also carried out to determine the stability of flavonoids in DMSO under analogous conditions.

[4] = system: HLMEC cultures; experiment: Stability of flavonoids in the cell cultures, HPLC; assay type: in vitro ADME, human; settings: 100 μg/mL, 3 h of incubation
Procedure: (§1) Flavonoids dissolved (as described in Section 2.4) were added to the HLMEC and MCF7 line cultures, and the final concentration was 100 μg/mL. The cultures were incubated in 96-well plates for 3 h and transferred to microtubes containing 400 µL of cold methanol (−20 °C) and kept at −20 °C for 1 h. After centrifugation at 12,000× g for 10 min, samples were analyzed by HPLC. To determine the stability of flavonoids in HLMEC and MCF7 culture media (not containing cells) under analogous conditions, control experiments were also carried out.

[5] = system: MCF7 cultures; experiment: Stability of flavonoids in the cell cultures, HPLC; assay type: in vitro ADME, human; settings: 100 μg/mL, 3 h of incubation
Procedure: as §1

Row | SMILES | IC50 [1] | IC50 [2] | stability after dilution with 1:1 RPMI 1640/Opti-MEM medium [3] | compound remaining after incubation in HLMEC cultures [4] | compound remaining after incubation in MCF7 cultures [5]
1 | O=c1cc(-c2ccc(O)cc2)oc2cc(O)cc(O)c12 [Compound 2, apigenin] | 8.18 ± 2.76 µM | 35.7 ± 11.9 µM | stable | over 98% | over 98%
2 | O=C1C[C@@H](c2ccc(O)cc2)Oc2cc(O)cc(O)c21 [Compound 6, naringenin] | 146 ± 19.1 µM | 185 ± 23.2 µM | stable | over 98% | over 98%
3 | O=c1cc(-c2ccc(O)cc2)oc2c(O)c(O)cc(O)c12 [Compound 10, 8-hydroxyapigenin] |  |  | complete decomposition |  | 
